The target of the assay is T1, human GLP-1 receptor (Homo sapiens, UniProt P43220).
T1 construct: expressed in transfected cells
Description: GLP-1R cAMP Assay (HitHunter cAMP accumulation). Type of assay: cell-based. The conditions noted are these: cAMP accumulation, CHO cells stably overexpressing human GLP-1 receptor, 30 min treatment; read-out: EC50. Put shortly:
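CHO cells stably expressing human GLP-1R, 10,000 cells/well in HBSS with 10 mM HEPES and 625 μM IBMX, were mixed with anti-cAMP antibody reagent. Compound was applied as a 20-point dose response in triplicate for 30 min. After lysis and overnight detection, luminescence was read and dose-response curves analysed.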

A word on the EC50: it is the midpoint of the concentration-response curve.

Structures are written as SMILES. Where only a bound is given, the exact number is not on record here.

T1 sequence (P43220 24-463): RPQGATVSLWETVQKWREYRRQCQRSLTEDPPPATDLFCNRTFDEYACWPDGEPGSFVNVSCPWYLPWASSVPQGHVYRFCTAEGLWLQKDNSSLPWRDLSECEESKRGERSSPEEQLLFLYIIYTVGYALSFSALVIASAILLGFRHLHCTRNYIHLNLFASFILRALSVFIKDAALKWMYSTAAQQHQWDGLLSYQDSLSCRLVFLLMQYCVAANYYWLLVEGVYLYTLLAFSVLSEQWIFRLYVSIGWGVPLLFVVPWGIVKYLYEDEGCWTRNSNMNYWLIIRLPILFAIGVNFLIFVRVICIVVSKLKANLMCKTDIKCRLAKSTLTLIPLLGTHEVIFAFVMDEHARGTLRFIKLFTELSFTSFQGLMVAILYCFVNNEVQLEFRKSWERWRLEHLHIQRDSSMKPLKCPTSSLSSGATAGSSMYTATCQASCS

For `O=C(O)c1ccc2nc(CN3CC(Oc4ccnc(COc5ccc(F)cc5F)n4)C3)n(C[C@@H]3CCO3)c2c1` [Compound 550], the EC50 was less than 50 nM. Regarding `N#Cc1ccc(OCc2nc(C34CC3CN(Cc3nc5ccc(C(=O)O)cc5n3C[C@@H]3CCO3)C4)ccc2F)c(F)c1` (mixture of isomers) [Example 522, 2-((1-(6-((4-Cyano-2-fluorophenoxy)methyl)-5-fluoropyridin-2-yl)-3-azabicyclo[3.1.0]hexan-3-yl)methyl)-1-(((S)-oxetan-2-yl)methyl)-1H-benzo[d]imidazole-6-carboxylic acid], the EC50 is less than 50 nM. The figure for `N#Cc1ccc(OCc2nc(C3=CCN(Cc4nc5c(F)cc(C(=O)O)cc5n4CC4(CC(N)=O)CC4)C3)ccc2F)c(F)c1` [Compound 425, 1-{[1-(carbamoylmethyl)cyclopropyl]methyl}-2-[(3-{6-[(4-cyano-2-fluorophenoxy)methyl]-5-fluoropyridin-2-yl}-2,5-dihydro-1H-pyrrol-1-yl)methyl]-4-fluoro-1H-1,3-benzodiazole-6-carboxylic acid] is 50 to 500 nM. Take `N#CCC1(Cn2c(CN3CC[C@@H](c4ccnc(COc5ccc(Cl)cc5F)c4)C3)nc3c(F)cc(C(=O)O)cc32)CC1` [Compound 432, 2-{[(3S)-3-{2-[(4-chloro-2-fluorophenoxy)methyl]pyridin-4-yl}pyrrolidin-1-yl]methyl}-1-{[1-(cyanomethyl)cyclopropyl]methyl}-4-fluoro-1H-1,3-benzodiazole-6-carboxylic acid]: the EC50 was less than 50 nM. The figure for `O=C(O)c1ccc2nc(CN3CC=C(c4cc(COc5ccc(Cl)cc5Cl)ccn4)C3)n(Cc3cnco3)c2c1` [Example 390, 2-((3-(4-((2,4-Dichlorophenoxy)methyl)pyridin-2-yl)-2,5-dihydro-1H-pyrrol-1-yl)methyl)-1-(oxazol-5-ylmethyl)-1H-benzo[d]imidazole-6-carboxylic acid] is less than 50 nM; for `N#Cc1ccc(OCc2nccc(Oc3ccc(Cc4nc5ccc(C(=O)O)cc5n4C[C@@H]4CCO4)c(F)c3)n2)c(F)c1` [Compound 465, 2-{[4-({2-[(4-cyano-2-fluorophenoxy)methyl]pyrimidin-4-yl}oxy)-2-fluorophenyl]methyl}-1-{[(2S)-oxetan-2-yl]methyl}-1H-1,3-benzodiazole-6-carboxylic acid] it is less than 50 nM; for `O=C(O)c1ccc2nc(CN3CCC(c4cc(COc5ccc(Cl)cc5Cl)ccn4)C3)n(C[C@@H]3CCO3)c2c1` (stereo partly drawn) [Compound 391] it is less than 50 nM. `O=C(O)c1cc(F)c2nc(CN3CC[C@H](c4ccnc(COc5ccc(Cl)cc5F)c4)C3)n(C[C@@H]3CCO3)c2c1` (single isomer, unassigned) [Example 427]: the EC50 is less than 50 nM. The value for `CCn1cncc1Cn1c(CN2CC(=Cc3cccc(COc4ccc(Cl)cc4Cl)c3)C2)nc2ccc(C(=O)O)cc21` [Compound 196] was less than 50 nM; that for `N#Cc1ccc(OCc2ccc(F)c(C3CCN(Cc4nc5c(F)cc(C(=O)O)cc5n4C[C@@H]4CCO4)C3)n2)c(F)c1` (stereo partly drawn) [Compound 521, 2-[(3-{6-[(4-cyano-2-fluorophenoxy)methyl]-3-fluoropyridin-2-yl}pyrrolidin-1-yl)methyl]-4-fluoro-1-{[(2S)-oxetan-2-yl]methyl}-1H-1,3-benzodiazole-6-carboxylic acid] was less than 50 nM; that for `O=C(O)c1ccc2nc(CN3CC=C(c4cccc(COc5ccc(Cl)cc5F)c4F)C3)n(C[C@@H]3CCO3)c2c1` [Compound 426, 2-[(3-{3-[(4-chloro-2-fluorophenoxy)methyl]-2-fluorophenyl}-2,5-dihydro-1H-pyrrol-1-yl)methyl]-1-{[(2S)-oxetan-2-yl]methyl}-1H-1,3-benzodiazole-6-carboxylic acid] was 50 to 500 nM. The figure for `O=C(O)c1ccc2nc(CN3CC(Oc4cnc(COc5ccc(Cl)cc5Cl)o4)C3)n(C[C@@H]3CCO3)c2c1` [Example 213, (S)-2-((3-((2-((2,4-Dichlorophenoxy)methyl)oxazol-5-yl)oxy)azetidin-1-yl)methyl)-1-(oxetan-2-ylmethyl)-1H-benzo[d]imidazole-6-carboxylic acid] is less than 50 nM.

Turning to `C[C@H]1[C@@H](Oc2ccnc(COc3ccc(Cl)cc3F)n2)CN1Cc1nc2ccc(C(=O)O)cc2n1C[C@@H]1CCO1` [Compound 547, 2-{[(2S,3S)-3-({2-[(4-chloro-2-fluorophenoxy)methyl]pyrimidin-4-yl}oxy)-2-methylazetidin-1-yl]methyl}-1-{[(2S)-oxetan-2-yl]methyl}-1H-1,3-benzodiazole-6-carboxylic acid], the EC50 was less than 50 nM. The figure for `O=C(O)c1ccc2nc(CN3CC(Cc4ccnc(COc5ccc(Cl)cc5Cl)c4)C3)n(C[C@H]3CCOC3)c2c1` [Compound 180] is less than 50 nM. The value for `N#Cc1ccc(OCc2nc(N3CC[C@@H](Cc4nc5ccc(C(=O)O)cc5n4C[C@@H]4CCO4)C3)ccc2F)c(F)c1` [Compound 533, 2-(((S)-1-(6-((4-Cyano-2-fluorophenoxy)methyl)-5-fluoropyridin-2-yl)pyrrolidin-3-yl)methyl)-1-(((S)-oxetan-2-yl)methyl)-1H-benzo[d]imidazole-6-carboxylic acid] was less than 50 nM.
